According to patent publication US7723321B2, “Chromane substituted benzimidazole derivatives” (RaQualia Pharma Inc., priority 2005, dated 2010):

target: T1, porcine gastric H^+/K^+-ATPase (Sus scrofa, UniProt P19156); assay: Ion-tight porcine gastric H+/K+-ATPase inhibition; type: biochemical; conditions: ion-tight porcine gastric vesicles, 150 mM KCl, valinomycin, pH 7.4, 37° C., 30 minutes
T1 construct: prepared from mucous membrane in fresh porcine stomachs by homogenization; from tissue; host or cells: mucous membrane of fresh porcine stomachs (gastric vesicles, Ficoll/sucrose gradient)
Protocol: The porcine gastric vesicles for Porcine gastric H^+/K^+-ATPase inhibition assays were prepared from mucous membrane in fresh porcine stomachs by homogenization with a tight-fitted polytetrafluoroethylene (Teflone®) homogenizer in 0.25 M sucrose at 4° C. The crude pellet was removed with centrifugation at 20,000 g for 30 min. Then supernatant was centrifuged at 100,000 g for 30 min. The resulting pellet was re-suspended in 0.25 M sucrose, and then subjected to density gradient centrifugation at 132,000 g for 90 min. The gastric vesicles were collected from interface on 0.25 M sucrose layer containing 7% Ficoll™ PM400(Amersham Biosciences). This procedure was performed in a cold room.
Ion-tight porcine gastric H^+/K^+-ATPase inhibition was measured according to the modified method described in Biochemical Pharmacology, 1988, 37, 2231-2236.
The isolated vesicles were kept in deep-freezer until use. For enzyme assay, vesicles were diluted with 3 mM MgSO4 containing 5 mM Tris (pH 7.4 at 37° C.).
Enzyme reaction was performed incubating 150 mM KCl, 3 mM Na2ATP, 3 mM MgSO4 15 μM valinomycin and 3.0 μg of vesicles for 30 minutes at 37° C. in a final 60 μl of reaction mixture (5 mM Tris, pH 7.4) with or without the test compound. Enzyme reaction was stopped by adding 10% SDS. Released inorganic phosphate from ATP was detected by incubating with mixture of 1 part of 35 mM ammonium molybdate tetrahydrate in 15 mM Zinc acetate hydrate and 4 parts of 10% ascorbic acid (pH 5.0), resulting in phosphomolybdate, which has optical density at 750 nm.

T1 sequence (P19156 2-1034 limits assumed): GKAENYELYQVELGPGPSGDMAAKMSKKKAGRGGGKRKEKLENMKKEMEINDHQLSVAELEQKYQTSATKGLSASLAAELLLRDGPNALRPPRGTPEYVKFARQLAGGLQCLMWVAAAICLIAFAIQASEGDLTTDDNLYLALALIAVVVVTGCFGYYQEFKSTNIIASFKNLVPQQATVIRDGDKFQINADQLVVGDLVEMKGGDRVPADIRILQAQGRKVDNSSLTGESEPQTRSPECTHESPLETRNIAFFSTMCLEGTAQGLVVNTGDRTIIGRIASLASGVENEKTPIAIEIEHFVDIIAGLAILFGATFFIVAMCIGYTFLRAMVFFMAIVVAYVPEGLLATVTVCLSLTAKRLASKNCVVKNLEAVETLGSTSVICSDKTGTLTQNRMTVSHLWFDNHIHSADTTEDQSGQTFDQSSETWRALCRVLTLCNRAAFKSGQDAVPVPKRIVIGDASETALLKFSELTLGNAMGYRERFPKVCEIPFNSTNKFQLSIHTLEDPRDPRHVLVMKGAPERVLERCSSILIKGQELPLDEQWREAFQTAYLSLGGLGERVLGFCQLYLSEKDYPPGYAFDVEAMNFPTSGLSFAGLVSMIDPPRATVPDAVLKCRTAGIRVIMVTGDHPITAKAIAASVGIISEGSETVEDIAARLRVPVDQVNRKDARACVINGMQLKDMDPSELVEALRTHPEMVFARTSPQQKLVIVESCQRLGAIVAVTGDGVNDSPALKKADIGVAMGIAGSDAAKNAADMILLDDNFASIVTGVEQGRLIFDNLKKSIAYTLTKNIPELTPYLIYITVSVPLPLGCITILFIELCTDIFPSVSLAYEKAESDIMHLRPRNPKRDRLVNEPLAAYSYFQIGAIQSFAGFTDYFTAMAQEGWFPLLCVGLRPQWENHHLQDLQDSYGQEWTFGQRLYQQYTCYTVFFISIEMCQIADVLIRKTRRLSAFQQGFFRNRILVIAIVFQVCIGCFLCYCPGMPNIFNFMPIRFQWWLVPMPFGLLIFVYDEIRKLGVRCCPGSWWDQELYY
T1 sequence (P18434 whole entry partner): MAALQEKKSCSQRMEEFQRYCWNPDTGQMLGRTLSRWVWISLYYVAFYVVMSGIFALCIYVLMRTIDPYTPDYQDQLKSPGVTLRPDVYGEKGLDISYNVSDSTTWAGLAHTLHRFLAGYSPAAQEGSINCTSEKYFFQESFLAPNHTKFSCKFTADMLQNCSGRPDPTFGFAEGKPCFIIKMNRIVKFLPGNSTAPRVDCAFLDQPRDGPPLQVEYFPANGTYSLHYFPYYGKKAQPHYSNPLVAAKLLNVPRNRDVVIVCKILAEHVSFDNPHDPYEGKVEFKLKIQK

SMILES	IC50 [nM]
Cc1nc2c(OC3CCOc4cc(F)cc(F)c43)cc(C(=O)N(C)C)cc2[nH]1 (racemic) [Example 1, 4-[(5,7-Difluoro-3,4-dihydro-2H-chromen-4-yl)oxy]-N,N,2-trimethyl-1H-benzimidazole-6-carboxamide]	190
Cc1nc2c(OC3CCOc4cccc(F)c43)cc(C(=O)N(C)C)cc2[nH]1 (racemic) [Example 9, 4-[(5-Fluoro-3,4-dihydro-2H-chromen-4-yl)oxy]-N,N,2-trimethyl-1H-benzimidazole-6-carboxamide]	130
Cc1nc2c(OC3CCOc4cccc(F)c43)cc(C(=O)N(C)C)cc2[nH]1 (single isomer, unassigned; (+)) [Example 11, (+)-4-[(5-Fluoro-3,4-dihydro-2H-chromen-4-yl)oxy]-N,N,2-trimethyl-1H-benzimidazole-6-carboxamide]	120
Cc1nc2c(OC3CCOc4cccc(C)c43)cc(C(=O)N(C)C)cc2[nH]1 (single isomer, unassigned; (+)) [Example 18, (+)-N,N,2-Trimethyl-4-[(5-methyl-3,4-dihydro-2H-chromen-4-yl)oxy]-1H-benzimidazole-6-carboxamide]	130
Cc1nc2c(OC3CCOc4cccc(F)c43)cc(C(=O)N(C)C)cc2[nH]1 (single isomer, unassigned; (-)) [Example 10, (−)-4-[(5-Fluoro-3,4-dihydro-2H-chromen-4-yl)oxy]-N,N,2-trimethyl-1H-benzimidazole-6-carboxamide]	140
Cc1nc2c(OC3CCOc4cccc(C)c43)cc(C(=O)N(C)C)cc2[nH]1 (single isomer, unassigned; (-)) [Example 17, (−)-N,N,2-Trimethyl-4-[(5-methyl-3,4-dihydro-2H-chromen-4-yl)oxy]-1H-benzimidazole-6-carboxamide]	99
Cc1nc2c(OC3CCOc4cc(F)cc(F)c43)cc(C(=O)N3CCC3)cc2[nH]1 (single isomer, unassigned; (-)) [Example 22, (−)-6-(Azetidin-1-ylcarbonyl)-4-[(5,7-difluoro-3,4-dihydro-2H-chromen-4-yl)oxy]-2-methyl-1H-benzimidazole]	570
Cc1nc2c(OC3CCOc4cc(F)cc(F)c43)cc(C(=O)N(C)CCO)cc2[nH]1 (centres unmarked) [Example 7, 4-[(5,7-Difluoro-3,4-dihydro-2H-chromen-4-yl)oxy]-N-(2-hydroxyethyl)-N,2-dimethyl-1H-benzimidazole-6-carboxamide]	1100
Cc1nc2c(OC3CCOc4cc(F)cc(F)c43)cc(C(=O)N(C)CCN(C)C)cc2[nH]1 (centres unmarked) [Example 8, 4-[(5,7-Difluoro-3,4-dihydro-2H-chromen-4-yl)oxy]-N-[2-(dimethylamino)ethyl]-N,2-dimethyl-1H-benzimidazole-6-carboxamide]	610
Cc1nc2c(OC3CCOc4ccccc43)cc(C(=O)N(C)C)cc2[nH]1 (centres unmarked) [Example 12, 4-(3,4-Dihydro-2H-chromen-4-yloxy)-N,N,2-tri methyl-1H-benzimidazole-6-carboxamide]	230
Cc1nc2c(OC3CCOc4c(F)ccc(C)c43)cc(C(=O)N(C)C)cc2[nH]1 (centres unmarked) [Example 13, 4-[(8-Fluoro-5-methyl-3,4-dihydro-2H-chromen-4-yl)oxy]-N,N,2-trimethyl-1H-benzimidazole-6-carboxamide]	130
Cc1nc2c(OC3CCOc4c(F)ccc(F)c43)cc(C(=O)N(C)C)cc2[nH]1 (centres unmarked) [Example 14, 4-[(5,8-Difluoro-3,4-dihydro-2H-chromen-4-yl)oxy]-N,N,2-trimethyl-1H-benzimidazole-6-carboxamide]	220
CCc1nc2c(OC3CCOc4cc(F)cc(F)c43)cc(C(=O)N(C)C)cc2[nH]1 (centres unmarked) [Example 15, 4-[(5,7-Difluoro-3,4-dihydro-2H-chromen-4-yl)oxy]-2-ethyl-N,N-dimethyl-1H-benzimidazole-6-carboxamide]	210
CNC(=O)c1cc(OC2CCOc3cccc(C)c32)c2nc(C)[nH]c2c1 (centres unmarked) [Example 19, N,2-Dimethyl-4-[(5-methyl-3,4-dihydro-2H-chromen-4-yl)oxy]-1H-benzimidazole-6-carboxamide]	240
CCN(C)C(=O)c1cc(O[C@H]2CCOc3cc(F)cc(F)c32)c2nc(C)[nH]c2c1 [Example 23, (−)-4-[(5,7-Difluoro-3,4-dihydro-2H-chromen-4-yl)oxy]-N-ethyl-N,2-dimethyl-1H-benzimidazole-6-carboxamide]	110
Cc1nc2c(O[C@H]3CCOc4cc(F)cc(F)c43)cc(C(=O)N3CCOCC3)cc2[nH]1 [Example 24, (−)-4-[(5,7-Difluoro-3,4-dihydro-2H-chromen-4-yl)oxy]-2-methyl-6-(morpholin-4-ylcarbonyl)-1H-benzimidazole]	370
Cc1nc2c(OC3CCSc4ccccc43)cc(C(=O)N(C)C)cc2[nH]1 (centres unmarked) [Example 25, 4-(3,4-Dihydro-2H-thiochromen-4-yloxy)-N,N,2-trimethyl-1H-benzimidazole-6-carboxamide]	160

The next lines start with the values.

IC50 [nM]	SMILES
58	Cc1nc2c(OC3CCOc4cc(F)cc(F)c43)cc(C(=O)N3CCCC3)cc2[nH]1 (racemic) [Example 4, 4-[(5,7-Difluoro-3,4-dihydro-2H-chromen-4-yl)oxy]-2-methyl-6-(pyrrolidin-1-ylcarbonyl)-1H-benzimidazole]
86	Cc1nc2c(O[C@H]3CCOc4cc(F)cc(F)c43)cc(C(=O)N(C)C)cc2[nH]1 (single isomer, unassigned) [Example 2]
98	Cc1nc2c(O[C@@H]3CCOc4cc(F)cc(F)c43)cc(C(=O)N(C)C)cc2[nH]1 (single isomer, unassigned) [Example 3]
32	Cc1nc2c(OC3CCOc4cc(F)cc(F)c43)cc(C(=O)N3CCCC3)cc2[nH]1 (single isomer, unassigned; (+)) [Example 5, (+)-4-[(5,7-Difluoro-3,4-dihydro-2H-chromen-4-yl)oxy]-2-methyl-6-(pyrrolidin-1-ylcarbonyl)-1H-benzimidazole]
30	Cc1nc2c(OC3CCOc4cc(F)cc(F)c43)cc(C(=O)N3CCCC3)cc2[nH]1 (single isomer, unassigned; (-)) [Example 6, (−)-4-[(5,7-Difluoro-3,4-dihydro-2H-chromen-4-yl)oxy]-2-methyl-6-(pyrrolidin-1-ylcarbonyl)-1H-benzimidazole]
68	Cc1nc2c(OC3CCOc4cccc(C)c43)cc(C(=O)N(C)C)cc2[nH]1 (centres unmarked) [Example 16, N,N,2-Trimethyl-4-[(5-methyl-3,4-dihydro-2H-chromen-4-yl)oxy]-1H-benzimidazole-6-carboxamide]
71	Cc1nc2c(OC3CCOc4cccc(C)c43)cc(C(=O)N3CCCC3)cc2[nH]1 (centres unmarked) [Example 20, 2-Methyl-4-[(5-methyl-3,4-dihydro-2H-chromen-4-yl)oxy]-6-(pyrrolidin-1-ylcarbonyl)-1H-benzimidazole]
82	Cc1nc2c(OC3CCOc4cc(F)cc(C)c43)cc(C(=O)N(C)C)cc2[nH]1 (centres unmarked) [Example 21, 4-[(7-Fluoro-5-methyl-3,4-dihydro-2H-chromen-4-yl)oxy]-N,N,2-trimethyl-1H-benzimidazole-6-carboxamide]

system: gastric acid secretion; assay: Inhibition of gastric acid secretion in the Heidenhain pouch dog; type: in vivo, Beagle dogs; conditions: histamine-stimulated acid secretion, maximum inhibition relative to control
Protocol: Male Beagle dogs weighing 7-15 kg with Heidenhain pouch [Heidenhain R: Arch Ges Physiol. 1879, 19: 148-167] were used. The animals were allowed to recover from surgery for at least three weeks before the experiments. The animals were kept at a 12 hour light-dark rhythm, housed singly. They received standard food once daily at 11:00 a.m. and tap water ad libitum, and were fasted overnight prior to the experiment, with free access to water. Gastric juice samples were collected throughout the experiment by gravity drainage every 15 min. Acidity in the gastric juice was measured by titration to the end point of pH 7.0. Acid secretion was stimulated by a continuous intravenous infusion of histamine (80 μg/kg/h). Oral or intravenous bolus administration of the test compounds was done 90 minutes after commencement of the histamine infusion. The acid secretion was monitored after the administration. The activity was evaluated by the maximum inhibition relative to the corresponding control value.

SMILES	inhibitory activity (gastric acid secretion)
Cc1nc2c(O[C@H]3CCOc4cc(F)cc(F)c43)cc(C(=O)N(C)C)cc2[nH]1 (single isomer, unassigned) [Example 2]	good inhibitory activity
